Assay results published in US11691992B2 (Anacor Pharmaceuticals, Inc., priority 2017, dated 2023).
Where two headings read alike, the source gives them in different places.

Key:
Format in all cases: cell-based
[1] = test system: L. infantum MHOM/MA(BE)/67 amastigotes in primary peritoneal mouse macrophages; experiment: Leishmania infantum intracellular amastigote assay in mouse macrophages; details: Macrophage, 120 h, amastigotes in primary peritoneal mouse macrophages, 5 d, Giemsa staining, read-out: Inhibition of Organism Growth in Leishmania infantum MHOM/MA/BE/67, 5 d
Description: Example 111. Leishmania infantum Intracellular Amastigote Assay in Mouse Macrophages
L. infantum MHOM/MA(BE)/67 amastigotes were collected from the spleen of an infected donor hamster and used to infect primary peritoneal mouse macrophages. (Kaiser, M., Maes, L., Tadoori, L. P., Spangenberg, T., Ioset, J.-R. J. Biomol. Screen. 2015 20(5), 634-35.) To determine in vitro antileishmanial activity, 3×10^4 macrophages were seeded in each well of a 96-well plate. Culture medium was RPMI-1640 supplemented with L-glutamine (20 mM), 16.5 mM sodium hydrogen carbonate, and 10% fetal calf serum (FCS). After 2 d of outgrowth, 5×10^5 amastigotes/well were added and incubated for 2 h at 37° C. Prediluted samples to be tested were subsequently added, and the plates were further incubated for 5 d at 37° C. and 5% CO2. Total parasite burdens in the well were microscopically assessed after Giemsa staining and expressed as a percentage of the total burden in the blank controls without compound. In treated wells with high amastigote burdens, an overall estimate of the total burden per well was made without discrimination between the number of infected macrophages and the number of amastigotes per infected cell. In treated wells with low burdens, exact counting was performed. The 50% inhibitory concentrations (IC50s) were then generated for each dose response test using GraphPad Prism (GraphPad Software Inc., San Diego, Calif.) using the nonlinear regression (sigmoidal dose-response/variable slope) equation.

[2] = test system: IL3000 T. congolense (drug sensitive) strain; experiment: In vitro Alamar Blue 72 h drug sensitivity assay for T. congolense; details: Trypanosoma congolense; read-out: inhibition of T. congolense IL-3000 growth at a concentration of 1.0 μM (classes D, E)
Description: Example 106. In Vitro Alamar Blue 72 h Drug Sensitivity Assay for T. congolense
Compounds were tested in vitro for chemotherapeutic potency against the IL3000 T. congolense (drug sensitive) strain, using the Alamar Blue assay with several modifications. Test compounds were prepared as 10 mg/mL DMSO stocks for each assay run. Compounds were assayed in at least three separate, independent test runs and an 11-point dilution curve was used to determine the IC50 values. Bloodstream form trypanosomes were supported in HMI media containing 20% bovine serum and were incubated with test compounds for 69 h at 34° C. in a humidified atmosphere containing 5% CO2. Thereafter, 10 μL of Resazurin dye (12.5 mg in 100 mL of phosphate buffered saline, Sigma-Aldrich, Buchs, Switzerland) were added for an additional 3 h. Plates were then read using a fluorescent plate reader (Spectramax, Gemini XS, Bucher Biotec, Basel, Switzerland) using an excitation wavelength of 536 nm and an emission wavelength of 588 nm. Data points were averaged to generate sigmoidal dose-response curves and IC50 values were determined using Softmax Pro 5.2 software.

[3] = test system: bloodstream forms of T. b. rhodesiense STIB 900; experiment: T. brucei rhodesiense STIB 900 growth inhibition assay; details: Trypanosoma brucei, bloodstream forms, 72 h, Alamar Blue, protocol of Example 110, read-out: IC50: I Org. Growth T. brucei rhodesiense STIB 900, 3 d
Source text: Example 110. T. brucei rhodesiense STIB 900 Growth Inhibition Assay
The parasite strain used in this assay was isolated in 1982 from a human patient in Tanzania and after several mouse passages cloned and adapted to axenic culture conditions, ((a) Baltz, T., D. Baltz, C. Giroud, and J. Crockett. EMBO Journal, 1985, 4:1273-1277. (b) Thuita, J. K., S. M. Karanja, T. Wenzler, R. E. Mdachi, J. M. Ngotho, J. M. Kagira, R. Tidwell, and R. Brun. Acta Tropica 2008, 108:6-10.) Minimum Essential Medium (50 μl) supplemented with 25 mM HEPES, 1 g/l additional glucose, 1% MEM non-essential amino acids (100×), 0.2 mM 2-mercaptoethanol, 1 mM Na-pyruvate and 15% heat inactivated horse serum was added to each well of a 96-well microtiter plate. Serial drug dilutions of seven 3-fold dilution steps covering a range from 90 to 0.123 μg/ml were prepared. Then 10^4 bloodstream forms of T. b. rhodesiense STIB 900 in 50 μl was added to each well and the plate incubated at 37° C. under a 5% CO2 atmosphere for 72 h. 10 μl Alamar Blue (resazurin, 12.5 mg in 100 ml double-distilled water) was then added to each well and incubation continued for a further 2-4 h, (Raz, B., M. Iten, Y. Grether-Buhler, R. Kaminsky, and R. Brun. Acta Trap 1997, 68:139-47.) Then the plates were read with a Spectramax Gemini XS microplate fluorometer (Molecular Devices Cooperation, Sunnyvale, Calif., USA) using an excitation wave length of 536 nm and an emission wave length of 588 nm. Data were analyzed using the microplate reader software Softmax Pro (Molecular Devices Cooperation, Sunnyvale, Calif., USA).

[4] = test system: promastigote forms of L. major; experiment: Leishmania major promastigote growth inhibition assay (Alamar Blue); details: promastigotes, 44 hours + 4 hours Alamar Blue, read-out: IC50: I Org. promastigote Growth L. major, 2 d
Source text: Example 108. Leishmania major Promastigote Growth Inhibition Assay
The promastigote assay is a microtiter plate drug sensitivity prescreen assay used to determine antileishmanial activity of candidate drugs against promastigote forms of L. major. (Shadow et al., PLOS Neglected Tropical Diseases, 2009, e311.) Alamar Blue, or resazurin, is a non-fluorescent indicator dye that is converted to bright red-fluorescent resorufin via the activity of mitochondrial reductases. As the activity of mitochondrial reductases is reduced in cells that are dead or dying, and the intensity of the fluorescence is relative to cell number, a test compound that kills or inhibits growth of a particular target cell, such as L. major, will result in a lower production of fluorescent signal. Pre-dosed microtiter drug plates for use in the promastigote drug prescreen assay were produced using sterile 384-well black optical bottom tissue culture plates (Nunc Cat #12-565-344). Candidate drugs were diluted in dimethyl sulfoxide in four 96-well plates to either 10,000 ng/ml or 1,000 ng/ml, and 4.25 μL of diluted drug was subsequently dispensed into each well of a 384-well plate. Duplicate 384 well plates were made at each test concentration (10,000 ng/mL and 1,000 ng/mL) and amphotericin B was used as a batch control. The Tecan EVO Freedom liquid handling system (Tecan US, Inc., Durham, N.C.) was used to produce all drug assay plates and conduct all pipetting operations for this assay. L. major parasites were cultured in Schneider's medium (Lonza Cat #04-351Q) supplemented with 20% heat inactivated FBS (Invitrogen Cat #16140-089). Promastigotes in early log growth phase were harvested from culture, counted, suspended at 1.32×10^5 cells/mF and 5,000 promastigotes were dispensed into each well of the 384 well plate in a volume of 38.8 μL. The 384 well plates were subsequently incubated at 28° C. for 44 hours. 8.4 μF of Alamar Blue (Promega, Cat #G8081) was added to each well, the plates were subsequently incubated at 28° C. and 5% CO2 for 4 hours and then examined for the relative fluorescence units (RFU) per well using the Tecan Genios Plus (Tecan US, Inc., Durham, N.C.) with excitation set at 560 nm and emission set at 590 nm. The relative fluorescence from each well was used to determine the percent growth inhibition of each candidate compound tested. Compounds with 50% or greater inhibition of growth were selected for further analysis to determine IC50 values.

IC50 [1]	Compound	inhibition at 1 µM [2]	IC50 [3]	IC50 [4]	IC50 ([3]; RHODESIENSE|STIB900)
3000 to 19900 nM	Cn1nc(C(=O)Nc2ccc3c(c2)B(O)OC3)nc1-c1ncccc1Cl [Example 76, 5-(3-Chloropyridin-2-yl)-N-(1-hydroxy-1,3-dihydrobenzo[c][1,2]oxaborol-6-yl)-1-methyl-1H-1,2,4-triazole-3-carboxamide]	> 75%	100 to 300 nM		
3000 to 19900 nM	Cn1nc(C(=O)Nc2ccc3c(c2)B(O)OC3)nc1-c1ccc(Cl)cn1 [Example 77, 5-(5-Chloropyridin-2-yl)-N-(1-hydroxy-1,3-dihydrobenzo[c][1,2]oxaborol-6-yl)-1-methyl-1H-1,2,4-triazole-3-carboxamide]	> 75%	100 to 300 nM		
< 3000 nM	COc1cccc(-c2nc(C(=O)Nc3ccc4c(c3)B(O)OC4)nn2C)n1 [Example 75, N-(1-hydroxy-1,3-dihydrobenzo[c][1,2]oxaborol-6-yl)-5-(6-methoxypyridin-2-yl)-1-methyl-1H-1,2,4-triazole-3-carboxamide]	> 75%	< 100 nM		

The next lines start with the compound.

Compound	IC50 [1]	inhibition at 1 µM [2]	IC50 [3]	IC50 [4]	IC50 ([3]; RHODESIENSE|STIB900)
O=C(Nc1ccc2c(c1)B(O)OC2)c1nnn(CC2CCC2)c1C(F)(F)F [Example 47, 1-(cyclobutylmethyl)-N-(1-hydroxy-1,3-dihydrobenzo[c][1,2]oxaborol-6-yl)-5-(trifluoromethyl)-1H-1,2,3-triazole-4-carboxamide]				< 600 nM	
CCn1nnc(C(=O)Nc2ccc3c(c2)B(O)OC3)c1C [Example 46, 1-ethyl-N-(1-hydroxy-1,3-dihydrobenzo[c][1,2]oxaborol-6-yl)-5-methyl-1H-1,2,3-triazole-4-carboxamide]				2510 to 20000 nM	
Cn1nc(C(=O)Nc2ccc3c(c2)B(O)OC3(C)C)nc1-c1ccccn1 [Example 79]	20000 to 100000 nM	> 75%			310 to 10000 nM
